Where a name gives a salt, the structure may show the parent alone.
Legend:
[1] = Particle size determination by laser diffraction (MALVERN Mastersizer 2000); assay type: physicochemical; settings: for <150 μm (fraction of particles by volume smaller than specified diameter) / Mean particle size / <63 μm (fraction of particles by volume smaller than specified diameter): hydrochloride dihydrate
Procedure: Particle Size Determination by Laser Diffraction
The particle size of the obtained ondansetron hydrochloride dihydrate particles was determined as set forth above (See Methodology and Protocols). The mean particle size and particle size distribution of the particles (fraction of particles by volume smaller than specified diameter) are presented in the following table.

[2] = particles from the '578 patent process (cooling isopropanol/water solution); cited from earlier work
[3] = Drying: 40° C., eight (8) hours, 25° C., two (2) days
[4] = Drying: Ambient conditions, six (6) hours
[5] = Drying: None (i.e., wet particles after filtration)

Row | Structure (SMILES) | <250 μm (fraction of particles by volume smaller than specified diameter) ([1]; dried particles) | <150 μm (fraction of particles by volume smaller than specified diameter) ([1]; dried particles) | Mean particle size ([1]; dried particles) | <63 μm (fraction of particles by volume smaller than specified diameter) ([1]; dried particles) | other results
1 | Cc1nccn1CC1CCc2c(c3ccccc3n2C)C1=O (single isomer, unassigned) [Example 1, ondansetron hydrochloride dihydrate] | 100% | 90% | 96 μm |  | <60 μm (fraction of particles by volume smaller than specified diameter) ([1]; dried particles): 19%
2 | Cc1nccn1CC1CCc2c(c3ccccc3n2C)C1=O (single isomer, unassigned) [Example 2, ondansetron hydrochloride dihydrate] | 100% | 90% | 81 μm | 31% | 
3 | Cc1nccn1CC1CCc2c(c3ccccc3n2C)C1=O (single isomer, unassigned) [Example 3, ondansetron hydrochloride dihydrate] | 100% | 85% | 81 μm | 34% | 
4 | Cc1nccn1CC1CCc2c(c3ccccc3n2C)C1=O (single isomer, unassigned) [Example 4, ondansetron hydrochloride dihydrate] | 100% | 85% | 81 μm | 12% | 
5 | Cc1nccn1CC1CCc2c(c3ccccc3n2C)C1=O (single isomer, unassigned) [Example 5, ondansetron hydrochloride dihydrate] | 100% | 85% | 89 μm | 26% | 
6 | Cc1nccn1CC1CCc2c(c3ccccc3n2C)C1=O (stereo not shown) [Example 6, ondansetron hydrochloride dihydrate] |  |  |  |  | <60 μm [1, 3]: 15%; <350 μm [1, 3]: 100%; <60 μm ([1]; Drying: 40° C., four (4) hours): 28%; <280 μm ([1]; Drying: 40° C., four (4) hours): 100%; <60 μm ([1]; Drying: 40° C., two (2) hours): 35%; <290 μm ([1]; Drying: 40° C., two (2) hours): 100%; <60 μm [1, 4]: 28%; <280 μm [1, 4]: 100%; <60 μm [1, 5]: 31%; <280 μm [1, 5]: 100%
7 | Cc1nccn1CC1CCc2c(c3ccccc3n2C)C1=O (stereo not shown) [ondansetron hydrochloride dihydrate] |  |  |  |  | Fraction of particles smaller than 250 μm [2]: less than 60%
